What was measured:
Assay in all cases: relative viability (nuclei count vs DMSO), 5 days (fraction); higher = more cells survive
[1] = compound: COc1cccc2c1C(=O)c1c(O)c3c(c(O)c1C2=O)C[C@@](O)(C(=O)CO)C[C@@H]3O[C@H]1C[C@H](N)[C@H](O)[C@H](C)O1 [Doxorubicin] + Cc1nc(Nc2ncc(C(=O)Nc3c(C)cccc3Cl)s2)cc(N2CCN(CCO)CC2)n1 [Dasatinib] (partner 0.075 µM)
Summary of the method: (§1)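 Lung cancer cell lines were seeded in 1536-well plates and dosed by pin tool the next day, with either a single drug or a fixed anchor-drug dose combined with five library-drug doses (not always all listed) spaced in √10 steps. Five days later, one step fixed the cells and stained their nuclei (final 0.05% Triton X-100, 1% formaldehyde, 1 ug/ml Hoechst), and nuclei were counted on 4× images. Relative viability is the nuclei count in treated wells divided by the count in vehicle wells, and each value is the median of duplicate plates.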

[2] = compound: COC1=C(C=C(C=C1)C2=CC3=NC=CN3C(=N2)NC4=C(C=CC=N4)C(=O)N)OC [BAY61-3606] + Nc1ncn([C@H]2C[C@H](O)[C@@H](CO)O2)c(=O)n1 [Decitabine] (partner 2 µM)
Summary of the method: as §1

[3] = compound: COc1cccc2c1C(=O)c1c(O)c3c(c(O)c1C2=O)C[C@@](O)(C(=O)CO)C[C@@H]3O[C@H]1C[C@H](N)[C@H](O)[C@H](C)O1 [Doxorubicin] + CCNC(=O)c1noc(-c2cc(C(C)C)c(O)cc2O)c1-c1ccc(CN2CCOCC2)cc1 [Luminespib] (partner 0.01 µM)
Summary of the method: as §1

[4] = compound: COC1=C(C=C(C=C1)C2=CC3=NC=CN3C(=N2)NC4=C(C=CC=N4)C(=O)N)OC [BAY61-3606] + CC(C)C[C@H](NC(=O)[C@H](Cc1ccccc1)NC(=O)c1cnccn1)B(O)O [Bortezomib] (partner 0.002 µM)
Summary of the method: as §1

With NCI-H1666 the relative viability ([1]; first compound 0.001 µM) was 0.812, the relative viability ([1]; first compound 0.003162 µM) was 0.811 and the relative viability ([1]; first compound 0.01 µM) was 0.461. It also gave a relative viability ([1]; first compound 0.03162 µM) of 0.359, a relative viability ([1]; first compound 0.1 µM) of 0.318 and a relative viability ([2]; first compound 0.02 µM) of 0.784. It also gave a relative viability ([2]; first compound 0.06325 µM) of 0.655, a relative viability ([2]; first compound 0.2 µM) of 0.658 and a relative viability ([2]; first compound 0.6325 µM) of 0.737. For the same cell line, the relative viability ([2]; first compound 2 µM) was 0.686, the relative viability ([3]; first compound 0.001 µM) was 1.01 and the relative viability ([3]; first compound 0.003162 µM) was 0.868. It also gave a relative viability ([3]; first compound 0.01 µM) of 0.735, a relative viability ([3]; first compound 0.03162 µM) of 0.442 and a relative viability ([3]; first compound 0.1 µM) of 0.411. The relative viability ([4]; first compound 0.02 µM) was 0.99, the relative viability ([4]; first compound 0.2 µM) was 0.836 and the relative viability ([4]; first compound 0.6325 µM) was 0.806. For the same cell line, the relative viability ([4]; first compound 2 µM) was 0.683.
In the case of NCI-H1734, the relative viability ([1]; first compound 0.001 µM) is reported as 0.517, the relative viability ([1]; first compound 0.003162 µM) is reported as 0.572 and the relative viability ([1]; first compound 0.01 µM) is reported as 0.385. For the same cell line, the relative viability ([1]; first compound 0.03162 µM) was 0.317, the relative viability ([1]; first compound 0.1 µM) was 0.255 and the relative viability ([2]; first compound 0.02 µM) was 0.551. The relative viability ([2]; first compound 0.06325 µM) was 0.512, the relative viability ([2]; first compound 0.2 µM) was 0.503 and the relative viability ([2]; first compound 0.6325 µM) was 0.504. For the same cell line, the relative viability ([2]; first compound 2 µM) was 0.388, the relative viability ([3]; first compound 0.001 µM) was 0.869 and the relative viability ([3]; first compound 0.003162 µM) was 0.196. It also gave a relative viability ([3]; first compound 0.01 µM) of 0.175, a relative viability ([3]; first compound 0.03162 µM) of 0.18 and a relative viability ([3]; first compound 0.1 µM) of 0.213. The relative viability ([4]; first compound 0.02 µM) was 0.878, the relative viability ([4]; first compound 0.06325 µM) was 0.894 and the relative viability ([4]; first compound 0.2 µM) was 0.836. It also gave a relative viability ([4]; first compound 0.6325 µM) of 0.883 and a relative viability ([4]; first compound 2 µM) of 0.518.
Cell Line NCI-H1755 has a relative viability ([1]; first compound 0.001 µM) of 0.444, a relative viability ([1]; first compound 0.003162 µM) of 0.288 and a relative viability ([1]; first compound 0.01 µM) of 0.437. It also gave a relative viability ([1]; first compound 0.03162 µM) of 0.434, a relative viability ([1]; first compound 0.1 µM) of 0.554 and a relative viability ([2]; first compound 0.02 µM) of 0.671. For the same cell line, the relative viability ([2]; first compound 0.06325 µM) was 0.666, the relative viability ([2]; first compound 0.2 µM) was 0.656 and the relative viability ([2]; first compound 0.6325 µM) was 0.673. It also gave a relative viability ([2]; first compound 2 µM) of 0.773, a relative viability ([3]; first compound 0.001 µM) of 0.361 and a relative viability ([3]; first compound 0.003162 µM) of 0.273. It also gave a relative viability ([3]; first compound 0.01 µM) of 0.597, a relative viability ([3]; first compound 0.03162 µM) of 0.381 and a relative viability ([3]; first compound 0.1 µM) of 0.323. The relative viability ([4]; first compound 0.02 µM) was 0.953, the relative viability ([4]; first compound 0.06325 µM) was 0.961 and the relative viability ([4]; first compound 0.2 µM) was 0.957. For the same cell line, the relative viability ([4]; first compound 0.6325 µM) was 1.07 and the relative viability ([4]; first compound 2 µM) was 0.923.
NCI-H1792 gave a relative viability ([1]; first compound 0.003162 µM) of 0.901, a relative viability ([1]; first compound 0.01 µM) of 0.741 and a relative viability ([1]; first compound 0.03162 µM) of 0.769. It also gave a relative viability ([1]; first compound 0.1 µM) of 0.706, a relative viability ([2]; first compound 0.02 µM) of 0.605 and a relative viability ([2]; first compound 0.06325 µM) of 0.572. It also gave a relative viability ([2]; first compound 0.2 µM) of 0.547, a relative viability ([2]; first compound 0.6325 µM) of 0.617 and a relative viability ([2]; first compound 2 µM) of 0.493. It also gave a relative viability ([3]; first compound 0.003162 µM) of 0.467, a relative viability ([3]; first compound 0.01 µM) of 0.43 and a relative viability ([3]; first compound 0.03162 µM) of 0.527. The relative viability ([3]; first compound 0.1 µM) was 0.328, the relative viability ([4]; first compound 0.02 µM) was 0.967 and the relative viability ([4]; first compound 0.06325 µM) was 0.987. The relative viability ([4]; first compound 0.2 µM) was 0.879, the relative viability ([4]; first compound 0.6325 µM) was 0.943 and the relative viability ([4]; first compound 2 µM) was 0.976.
NCI-H1915 was tested, and the relative viability ([1]; first compound 0.001 µM) was 0.281, the relative viability ([1]; first compound 0.003162 µM) was 0.355 and the relative viability ([1]; first compound 0.01 µM) was 0.308. The relative viability ([1]; first compound 0.03162 µM) was 0.302, the relative viability ([1]; first compound 0.1 µM) was 0.324 and the relative viability ([2]; first compound 0.02 µM) was 0.258. For the same cell line, the relative viability ([2]; first compound 0.06325 µM) was 0.261, the relative viability ([2]; first compound 0.2 µM) was 0.265 and the relative viability ([2]; first compound 0.6325 µM) was 0.253. It also gave a relative viability ([2]; first compound 2 µM) of 0.23, a relative viability ([3]; first compound 0.001 µM) of 0.802 and a relative viability ([3]; first compound 0.003162 µM) of 0.733. It also gave a relative viability ([3]; first compound 0.01 µM) of 0.702, a relative viability ([3]; first compound 0.03162 µM) of 0.715 and a relative viability ([3]; first compound 0.1 µM) of 0.779. For the same cell line, the relative viability ([4]; first compound 0.02 µM) was 0.929, the relative viability ([4]; first compound 0.06325 µM) was 1 and the relative viability ([4]; first compound 0.2 µM) was 0.9. The relative viability ([4]; first compound 0.6325 µM) was 0.925 and the relative viability ([4]; first compound 2 µM) was 0.913.
Work on NCI-H1975 yielded a relative viability ([1]; first compound 0.001 µM) of 0.406, a relative viability ([1]; first compound 0.003162 µM) of 0.356 and a relative viability ([1]; first compound 0.01 µM) of 0.331. For the same cell line, the relative viability ([1]; first compound 0.03162 µM) was 0.304, the relative viability ([1]; first compound 0.1 µM) was 0.158 and the relative viability ([2]; first compound 0.02 µM) was 0.394. It also gave a relative viability ([2]; first compound 0.06325 µM) of 0.416, a relative viability ([2]; first compound 0.2 µM) of 0.438 and a relative viability ([2]; first compound 0.6325 µM) of 0.421. It also gave a relative viability ([2]; first compound 2 µM) of 0.271, a relative viability ([3]; first compound 0.001 µM) of 0.139 and a relative viability ([3]; first compound 0.003162 µM) of 0.183. For the same cell line, the relative viability ([3]; first compound 0.01 µM) was 0.249, the relative viability ([3]; first compound 0.03162 µM) was 0.167 and the relative viability ([3]; first compound 0.1 µM) was 0.178. For the same cell line, the relative viability ([4]; first compound 0.02 µM) was 0.427, the relative viability ([4]; first compound 0.06325 µM) was 0.349 and the relative viability ([4]; first compound 0.2 µM) was 0.421. For the same cell line, the relative viability ([4]; first compound 0.6325 µM) was 0.395 and the relative viability ([4]; first compound 2 µM) was 0.244.
Work on NCI-H1993 yielded a relative viability ([1]; first compound 0.001 µM) of 0.714, a relative viability ([1]; first compound 0.003162 µM) of 0.6 and a relative viability ([1]; first compound 0.01 µM) of 0.512. For the same cell line, the relative viability ([1]; first compound 0.03162 µM) was 0.479, the relative viability ([1]; first compound 0.1 µM) was 0.427 and the relative viability ([2]; first compound 0.02 µM) was 0.632. For the same cell line, the relative viability ([2]; first compound 0.06325 µM) was 0.622, the relative viability ([2]; first compound 0.2 µM) was 0.542 and the relative viability ([2]; first compound 0.6325 µM) was 0.536. It also gave a relative viability ([2]; first compound 2 µM) of 0.601, a relative viability ([3]; first compound 0.001 µM) of 1.8 and a relative viability ([3]; first compound 0.003162 µM) of 0.859. The relative viability ([3]; first compound 0.01 µM) was 0.8, the relative viability ([3]; first compound 0.03162 µM) was 0.713 and the relative viability ([3]; first compound 0.1 µM) was 0.727. The relative viability ([4]; first compound 0.02 µM) was 1.08, the relative viability ([4]; first compound 0.06325 µM) was 1.02 and the relative viability ([4]; first compound 0.2 µM) was 0.976. It also gave a relative viability ([4]; first compound 0.6325 µM) of 1.12 and a relative viability ([4]; first compound 2 µM) of 0.848.
Cell Line NCI-H2009 has a relative viability ([1]; first compound 0.001 µM) of 0.308, a relative viability ([1]; first compound 0.003162 µM) of 0.319 and a relative viability ([1]; first compound 0.01 µM) of 0.296. The relative viability ([1]; first compound 0.03162 µM) was 0.272, the relative viability ([1]; first compound 0.1 µM) was 0.235 and the relative viability ([2]; first compound 0.02 µM) was 0.368. It also gave a relative viability ([2]; first compound 0.06325 µM) of 0.359, a relative viability ([2]; first compound 0.2 µM) of 0.352 and a relative viability ([2]; first compound 0.6325 µM) of 0.365. For the same cell line, the relative viability ([2]; first compound 2 µM) was 0.415, the relative viability ([3]; first compound 0.001 µM) was 1.07 and the relative viability ([3]; first compound 0.003162 µM) was 0.979. For the same cell line, the relative viability ([3]; first compound 0.01 µM) was 1.01, the relative viability ([3]; first compound 0.03162 µM) was 0.925 and the relative viability ([3]; first compound 0.1 µM) was 0.582. It also gave a relative viability ([4]; first compound 0.02 µM) of 1.07, a relative viability ([4]; first compound 0.06325 µM) of 1.02 and a relative viability ([4]; first compound 0.2 µM) of 0.961. For the same cell line, the relative viability ([4]; first compound 0.6325 µM) was 1.02 and the relative viability ([4]; first compound 2 µM) was 0.83.

From the supplement of paper PMC10307832
